This assay deals with bulge keratinocytes (CD34+α6+). The assay is described as follows: Colony forming assay on sorted CD34+α6+ bulge keratinocytes in absence or presence of DAPT. It is filed as cell-based, mouse. To be noted: 10 μM for 7 days, cultured with feeders, vs DMSO-treated cultures; keratinocytes from 8-week-old wild type mice. As to the method:
FIG. 5 is a graph showing quantification of a colony forming assay on sorted CD34+α6+ keratinocytes in the absence or presence of DAFT. Equal numbers of sorted CD34±α6+ keratinocytes from 8-week-old wild type mice were cultured with feeders and treated with either DMSO as a vehicle control or 10 μM DAFT for 7 days. […] P<0.05, **:P<0.01.
We investigated whether the DSB signal seen in Pofut1/Tgfb3-Cre hair follicles was caused by aberrant cell proliferation, which has been reported in the case of oncogene-induced DNA damage checkpoint responses. To test this hypothesis, bulge keratinocytes were isolated from 8 weeks old wild type mice by FACS and cultured in the absence or presence of a γ-secretase inhibitor DAPT (Notch signaling inhibitor).

Consider `C[C@H](NC(=O)Cc1cc(F)cc(F)c1)C(=O)N[C@H](C(=O)OC(C)(C)C)c1ccccc1` [DAPT], for which the numbers of colonies entry is given as “increases” and the size of colonies result is listed as “increases”.

The record behind these values is patent US10716829B2, “Method and composition for treatment of hair loss” (NATIONAL HEALTH RESEARCH INSTITUTES, priority 2015, dated 2020).
